The target of one assay is T1, human TLR7 (Homo sapiens, UniProt Q9NYK1).
T1 construct: host or cells: HEK293
T1 sequence (Q9NYK1 27-1049): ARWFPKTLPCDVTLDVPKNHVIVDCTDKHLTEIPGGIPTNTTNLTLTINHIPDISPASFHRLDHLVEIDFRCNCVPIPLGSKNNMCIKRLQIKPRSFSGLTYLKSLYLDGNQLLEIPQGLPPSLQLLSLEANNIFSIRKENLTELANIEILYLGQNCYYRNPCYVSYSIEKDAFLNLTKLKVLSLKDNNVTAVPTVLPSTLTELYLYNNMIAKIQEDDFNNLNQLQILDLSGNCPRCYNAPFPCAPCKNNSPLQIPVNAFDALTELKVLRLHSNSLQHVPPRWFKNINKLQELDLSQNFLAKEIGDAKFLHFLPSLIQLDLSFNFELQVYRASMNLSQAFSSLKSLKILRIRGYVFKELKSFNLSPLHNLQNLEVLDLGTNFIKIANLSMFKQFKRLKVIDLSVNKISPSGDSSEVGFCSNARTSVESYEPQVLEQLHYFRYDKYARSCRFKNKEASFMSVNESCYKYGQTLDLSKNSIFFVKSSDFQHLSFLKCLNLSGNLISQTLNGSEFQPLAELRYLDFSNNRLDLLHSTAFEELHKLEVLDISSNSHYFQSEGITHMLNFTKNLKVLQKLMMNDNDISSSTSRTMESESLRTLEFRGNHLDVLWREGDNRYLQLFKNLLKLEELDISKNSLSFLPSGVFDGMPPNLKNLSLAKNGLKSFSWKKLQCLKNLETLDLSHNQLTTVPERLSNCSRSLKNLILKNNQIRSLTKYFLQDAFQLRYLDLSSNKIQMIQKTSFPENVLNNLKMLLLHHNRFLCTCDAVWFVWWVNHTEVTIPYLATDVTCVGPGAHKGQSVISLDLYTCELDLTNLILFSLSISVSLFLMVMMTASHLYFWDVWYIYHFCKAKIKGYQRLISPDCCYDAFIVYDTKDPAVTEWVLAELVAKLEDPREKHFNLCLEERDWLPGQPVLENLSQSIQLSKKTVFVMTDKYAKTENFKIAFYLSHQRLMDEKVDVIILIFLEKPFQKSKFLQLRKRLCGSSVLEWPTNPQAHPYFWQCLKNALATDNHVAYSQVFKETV
Description: HEK293 SEAP reporter assay, other TLRs (Biological Example 3). The format is cell-based. Particulars: 16 hrs, * = Estimated. From the text:
(§1) In this example, the activity of the Compound 1 to stimulate different human and mouse TLR pathways was investigated on HEK293 cells transfected with inducible SEAP (secreted embryonic alkaline phosphatase) reporter genes and also expressing different human TLRs (TLR2, TLR3, TLR4, TLR5, TLR7, TLR8, TLRS) or mouse TLRs (TLR2, TLR3, TLR4, TLR5, TLR7, TLR8, TLR13).
(§2) HEK293 reporter cell lines were purchased from Invivogen and cell lines were maintained in manufacture recommended culture medium with required supplemental antibiotics. On the day of assay, the cells were harvested with Accutase and counted by the Vi-CELL Cell Viability Analyzers. Cells were re-suspended in HEK blue detection medium and a total of 10000 cells were seeded in each well of a 384-well flat bottom plate. […] Assay plates were cultured at 37° C. in a CO2 incubator for 16 hrs. HEK-Blue™ Detection medium changes to a purple/blue color in the presence of secreted SEAP, which can be detected by spectrophotometry at 620-655 nm. Data was fitted with non-linear regression analysis, using a log(inhibitor) vs. response-variable slope, 3-parameter fit with GraphPad Prism.

The target of a further assay is T2, human TLR8 (Homo sapiens, UniProt Q9NR97).
T2 construct: host or cells: HEK293
T2 sequence (Q9NR97 27-1041): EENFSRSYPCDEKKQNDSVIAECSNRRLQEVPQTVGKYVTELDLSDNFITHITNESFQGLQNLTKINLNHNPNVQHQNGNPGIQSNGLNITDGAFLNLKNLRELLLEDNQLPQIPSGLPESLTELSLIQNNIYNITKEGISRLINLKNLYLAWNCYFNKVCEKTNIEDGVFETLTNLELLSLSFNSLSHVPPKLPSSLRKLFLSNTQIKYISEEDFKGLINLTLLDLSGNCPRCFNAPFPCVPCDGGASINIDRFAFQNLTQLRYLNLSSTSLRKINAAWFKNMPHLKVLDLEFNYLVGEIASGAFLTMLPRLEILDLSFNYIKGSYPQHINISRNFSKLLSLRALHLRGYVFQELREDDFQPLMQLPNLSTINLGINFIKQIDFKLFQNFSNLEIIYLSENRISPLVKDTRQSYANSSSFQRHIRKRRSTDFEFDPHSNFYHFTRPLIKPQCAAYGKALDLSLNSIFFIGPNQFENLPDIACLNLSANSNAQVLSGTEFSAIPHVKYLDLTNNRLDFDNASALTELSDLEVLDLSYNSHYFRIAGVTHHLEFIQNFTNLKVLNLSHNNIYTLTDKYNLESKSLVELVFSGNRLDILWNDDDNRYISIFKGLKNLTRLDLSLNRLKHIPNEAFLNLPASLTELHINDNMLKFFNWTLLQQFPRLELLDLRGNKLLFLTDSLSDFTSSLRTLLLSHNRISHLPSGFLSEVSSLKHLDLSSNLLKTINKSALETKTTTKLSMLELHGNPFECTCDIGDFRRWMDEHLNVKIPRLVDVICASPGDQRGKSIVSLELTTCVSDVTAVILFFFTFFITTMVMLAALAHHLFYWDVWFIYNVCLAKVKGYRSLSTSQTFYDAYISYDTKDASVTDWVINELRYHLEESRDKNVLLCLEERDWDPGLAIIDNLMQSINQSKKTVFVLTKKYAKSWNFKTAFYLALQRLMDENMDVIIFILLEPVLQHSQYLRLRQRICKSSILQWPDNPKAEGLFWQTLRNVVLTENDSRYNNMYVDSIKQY
The description is as above. The format is cell-based. Particulars: 16 hrs, * = Estimated.
Source text: as §1, §2

In general, EC50 refers to the concentration that produces a half-maximal response. On to `CCCCn1nc2c(N)nc3ccccc3c2c1Cc1ccc(CN)cc1` [Compound 1, 1-(4-(aminomethyl)benzyl)-2-butyl-2H-pyrazolo[3,4-c]quinolin-4-amine], for which the figures for the concentration giving a half-maximal response (EC50) on human TLR7 and on human TLR8 were 61.4 nM and approximately 401 nM, respectively.

The values are drawn from patent publication US20220259202A1, “1-(4-(AMINOMETHYL)BENZYL)-2-BUTYL-2H-PYRAZOLO[3,4-C]QUINOLIN-4-AMINE DERIVATIVES AND RELATED COMPOUNDS AS TOLL-LIKE RECEPTOR (TLR) 7/8 AGONISTS, AS WELL AS ANTIBODY DRUG CONJUGATES THEREOF FOR USE IN CANCER THERAPY AND DIAGNOSIS” (SUTRO BIOPHARMA, INC., priority 2019, published 2022).
